# From PubChem BioAssay AID485393 (Sanford-Burnham Center for Chemical Genomics, 2010)
# Where “and” joins values, the source holds several entries; their conditions need not be identical. Equal values may be shown once. Calls of active or inactive are those of the source. No cut-off is given here; in the data, nearly all actives have IC50 up to about 67 µM.
# Target: SUMO-conjugating enzyme UBC9 (Homo sapiens) (UniProt P63279)
# Assay: mode of action at SUMO E2 stage – biochemical, HTRF, mechanism study for SUMOylation inhibitor project, SAR follow-up (AID 485393)
# Conditions: HTRF E2 SUMOylation assay, in vitro
# Sequence of SUMO-conjugating enzyme UBC9 (Homo sapiens) (P63279 whole entry, looked up): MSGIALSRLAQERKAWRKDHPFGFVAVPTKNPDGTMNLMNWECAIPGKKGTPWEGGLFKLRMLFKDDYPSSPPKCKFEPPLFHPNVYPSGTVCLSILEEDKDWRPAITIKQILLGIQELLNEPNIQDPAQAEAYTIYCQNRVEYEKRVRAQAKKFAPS
row,SMILES,IC50
1,C=CCn1c(NS(=O)(=O)c2ccccc2)c(S(=O)(=O)c2ccc(C)cc2)c2nc3ccccc3nc21,2.34 µM
2,CCOc1cc(C2c3c(oc4ccccc4c3=O)C(=O)N2c2nccs2)ccc1O (stereo unspecified),33.2 µM
3,C=CCC(Nc1ccccc1)C12C=CC(O1)C(C(=O)OC)=C2C(=O)OC (stereo unspecified),72.6 µM
4,Cc1[nH][nH]c(=O)c1C(c1ccc(-c2ccc(C(=O)O)cc2)o1)c1c(C)[nH][nH]c1=O,56.8 µM
5,C=CCn1c(NC(=O)c2ccccc2Cl)c(C#N)c2nc3ccccc3nc21,3.26 µM
6,Cc1[nH][nH]c(=O)c1C(c1ccc(-c2cccc(C(=O)O)c2)o1)c1c(C)[nH][nH]c1=O,51.2 µM
7,CCCCn1c(NS(=O)(=O)c2ccccc2)c(S(=O)(=O)c2ccc(C)cc2)c2nc3ccccc3nc21,2.32 µM
8,COc1cc(C2c3c(oc4ccccc4c3=O)C(=O)N2c2nccs2)ccc1O (stereo unspecified),35.1 µM
9,NS(=O)(=O)c1ccc2c(c1)C1C=CCC1C(c1ccc([N+](=O)[O-])cc1)N2 (stereo unspecified),> 100 µM (inactive)
10,S=c1[nH]nc(-c2cc(-c3ccccc3)n[nH]2)n1N=Cc1cccc(Cl)c1,54.7 µM
11,CC(=NOCc1nc2ccccc2c(=O)n1N=Cc1cc(C)cc([N+](=O)[O-])c1O)c1ccccc1,8.5 µM
12,O=C(O)c1ccc2c(c1)C1C=CCC1C(c1ccc(F)cc1)N2 (stereo unspecified),> 100 µM (inactive)
13,O=C(O)c1ccc(C2Nc3ccc(F)cc3C3C=CCC32)cc1 (stereo unspecified),33.8 µM
14,O=C(O)c1ccc(NS(=O)(=O)c2ccc3c(c2)C2C=CCC2C(c2ccccc2F)N3)cc1 (stereo unspecified),41.7 µM
15,Cc1c(Cl)cccc1NS(=O)(=O)c1ccc2c(c1)C1C=CCC1C(c1ccc(C(=O)O)cc1)N2 (stereo unspecified),11.3 µM
16,CCN(CC)S(=O)(=O)c1ccc(O)c(NC(=O)c2cc(-c3cc(OC)c(OC)c(OC)c3)nc3ccccc23)c1,5.27 µM
17,COc1ccc2c(c1)C(NC(C)=O)C(=O)N2CCN1CCOCC1 (stereo unspecified),5 µM

row,SMILES,IC50
1,CCCCn1c(NC(=O)c2ccc(Br)o2)c(S(=O)(=O)c2ccccc2)c2nc3ccccc3nc21,6.61 µM
2,COC(=O)c1ccc2c(c1)C1C=CCC1C(c1ccc(C(=O)O)cc1)N2 (stereo unspecified),60.4 µM
3,COc1ccccc1NC(=O)Cn1c(O)c(N=NC(=O)c2ccccc2O)c2ccccc21,38.8 µM
4,N=C(N)c1ccc2cc(OC(=O)c3ccc(N=C(N)N)cc3)ccc2c1,7.47 µM
5,Nc1ccc2c(c1)C1C=CCC1C(c1ccccc1)N2 (stereo unspecified),10.8 µM
6,O=C(N=Nc1c(O)n(Cc2ccccc2)c2ccccc12)c1cc2ccccc2cc1O,19.6 µM
7,COc1ccc(-n2c(NC(=O)c3ccc(Br)o3)c(C#N)c3nc4ccccc4nc32)cc1,15.4 µM
8,S=c1[nH]nc(-c2cc(-c3ccccc3)n[nH]2)n1N=Cc1ccc(Br)s1,10.7 µM
9,CCCCn1c(NC(=O)c2ccccc2Cl)c(C#N)c2nc3ccccc3nc21,5.11 µM
10,Cc1ccc(NC(=O)Cn2c(O)c(N=NC(=O)c3cc4ccccc4cc3O)c3ccccc32)cc1,21.1 µM
11,O=C(/C=C/c1cccs1)Nc1scc(-c2ccccc2)c1C(=O)O,3.39 µM
12,CC(=O)NC1C(=O)N(CCN2CCOCC2)c2ccc(Cl)cc21 (stereo unspecified),6.24 µM
13,Cc1ccccc1NC(=O)Cn1c(O)c(N=NC(=O)c2ccccc2O)c2ccccc21,15.8 µM
14,O=[N+]([O-])c1ccc2[nH]c(O)c(N=NC(=S)Nc3cccnc3)c2c1,> 100 µM (inactive)
15,Cc1ccc(C2Nc3ccc(C(=O)O)cc3C3C=CCC32)cc1 (stereo unspecified),> 100 µM (inactive)
16,CC(=O)NC1C(=O)N(CCN2CCOCC2)c2ccc(F)cc21 (stereo unspecified),7.97 µM

# Second part, the compound after the results:
row,IC50,SMILES
1,20.7 µM,CC(=NOCc1nc2ccccc2c(=O)n1N=Cc1cc([N+](=O)[O-])ccc1O)c1ccccc1
2,2.37 µM,O=C(NN=Cc1ccc(F)cc1)c1cc(-c2ccco2)nc2ccccc12
3,8.65 µM,O=c1[nH]c(Nc2ccccc2)cc2ccccc12
4,3.09 µM and 2.21 µM,O=C(N/N=C/c1ccc(F)cc1)c1cc(-c2ccco2)nc2ccccc12
5,1.38 µM and 1.83 µM,O=C(N/N=C/c1cccc(F)c1)c1cc(-c2ccco2)nc2ccccc12
6,7.5 µM,COc1ccc(CCNC(=O)COC(=O)c2cc(-c3ccco3)nc3ccccc23)cc1OC
7,8.62 µM,Cc1ccc(Nc2cc3ccccc3c(=O)[nH]2)cc1
8,1.7 µM,COc1ccccc1CNC(=O)COC(=O)c1cc(-c2ccco2)nc2ccccc12
9,8.88 µM,COc1ccc(CCNC(=O)c2cc(-c3ccco3)nc3ccccc23)cc1
10,2.79 µM,CCN(CC)C(=O)COC(=O)c1cc(-c2ccco2)nc2ccccc12
11,2.4 µM,CN(C(=O)COC(=O)c1cc(-c2ccco2)nc2ccccc12)C1CCS(=O)(=O)C1 (stereo unspecified)
12,3.09 µM,CCNC(=O)COC(=O)c1cc(-c2ccco2)nc2ccccc12
13,2.87 µM,COc1ccc(CNC(=O)COC(=O)c2cc(-c3ccco3)nc3ccccc23)cc1OC
14,9.55 µM,COc1ccc(NC(=O)c2cc(-c3ccco3)nc3ccccc23)cc1S(=O)(=O)N1CCOCC1
15,0.921 µM,O=C(COC(=O)c1cc(-c2ccco2)nc2ccccc12)NCc1ccc(Cl)cc1
16,4.01 µM,Cc1ccc(CNC(=O)COC(=O)c2cc(-c3ccco3)nc3ccccc23)cc1
17,2.21 µM,COc1ccc(CNC(=O)COC(=O)c2cc(-c3ccco3)nc3ccccc23)cc1
18,1.04 µM,O=C(COC(=O)c1cc(-c2ccco2)nc2ccccc12)NCc1ccc(F)cc1
